Measured values as given in patent US9790253B2, “OSW-1 analogs and conjugates, and uses thereof” (priority 2011, dated 2017).
“Also recorded” adds a separate entry of the source. Like-named read-outs stand apart in the source and are kept apart here. Where a SMILES comes first, the peptide text is derived from it. The star is where a group is joined. Cbz = O=C(OCc1ccccc1)*

What was measured:
[1] = tested on: HCT-116 p21^+/+ (wt) cells; assay: Growth inhibition (cell viability assay) of HCT-116 p21+/+ cells; conditions: for GI50: Homo sapiens
Protocol: (§1) Cell viability assay. Cells were plated into 96-well plates in 75 μL of media. After 24 h, a time-zero plate was produced by adding 25 μL of media and 20 μL of CellTiter-Blue® (Promega) to the wells, followed by incubation at 37° C. for 90 min. Fluorescence (544 nm excitation; 590 nm emission) was detected using a SPECTRAmax® Gemini XS to establish cell viability at time of dosing. Then, compounds were serially diluted in media and delivered to the cells as 4× solutions in 25 μL of media. At either 48 h or 72 h, CellTiter-Blue® was added and the fluorescence was recorded as described above.
(§2) Tasdemir et al. (2002) J Nat Prod 65:210-4. GI50-values of the compounds were determined in HCT-116 p21^+/+ (wt) and p21^−/− cells after 48 h using a resazurin redox dye to measure cell viability.
(§3) Methods are described above in the General Methods section.

[2] = tested on: HCT-116 p21^−/− cells; assay: cells; conditions: for GI50: Homo sapiens, HCT-116, 48 h, read-out: GI50 (nM) 48 h p21^−/−
Protocol: as §1, §2, §3

[3] = target: T1, OSBP1 protein levels in HCT-116 cells (Homo sapiens, UniProt P22059); assay: OSBP1 protein levels by western blotting; type: cell-based; conditions: for block of OSBP1 degradation by 1 and 2: co-administered with 1 and 2; for effect on OSBP1 levels, compound alone: concentration not given
T1 construct: endogenous in cells; host or cells: HCT-116
T1 sequence (P22059 1-807): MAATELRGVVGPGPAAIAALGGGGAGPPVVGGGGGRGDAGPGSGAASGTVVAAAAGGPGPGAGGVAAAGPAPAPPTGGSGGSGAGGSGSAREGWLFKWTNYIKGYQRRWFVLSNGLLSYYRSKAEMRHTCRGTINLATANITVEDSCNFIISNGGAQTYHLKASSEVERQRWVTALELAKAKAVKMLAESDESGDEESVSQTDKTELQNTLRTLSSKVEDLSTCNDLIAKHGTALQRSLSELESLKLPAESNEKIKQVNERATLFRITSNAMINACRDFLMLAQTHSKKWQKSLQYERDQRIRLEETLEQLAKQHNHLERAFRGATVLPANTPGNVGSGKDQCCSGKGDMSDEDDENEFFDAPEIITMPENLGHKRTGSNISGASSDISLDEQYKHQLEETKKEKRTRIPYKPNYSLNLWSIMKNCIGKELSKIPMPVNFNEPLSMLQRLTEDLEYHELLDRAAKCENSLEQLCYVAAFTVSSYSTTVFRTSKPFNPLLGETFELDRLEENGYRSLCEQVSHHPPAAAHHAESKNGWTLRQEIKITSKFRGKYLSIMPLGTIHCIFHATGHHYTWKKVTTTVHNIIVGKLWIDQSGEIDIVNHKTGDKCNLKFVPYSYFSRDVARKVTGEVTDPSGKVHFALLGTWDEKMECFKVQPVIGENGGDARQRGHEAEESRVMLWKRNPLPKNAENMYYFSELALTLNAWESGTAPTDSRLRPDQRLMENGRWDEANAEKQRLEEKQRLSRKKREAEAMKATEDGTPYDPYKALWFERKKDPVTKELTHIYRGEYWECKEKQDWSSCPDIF
Protocol: A possible explanation for this observation was that treatment with 1 and 2 caused a decrease in OSBP1 levels. Treatment of HCT-116 cells with vehicle (DMSO) or 25-OHC (10 μM) had no effect on OSBP1 levels, as assessed by western blotting (FIG. 6A). However, treatment with 1 or 2 induced a dramatic, time-dependent reduction of OSBP1 levels (FIG. 6A). For example, 50 nM of 1 or 10 nM of 2 caused an approximately 75% reduction in OSBP1 protein levels at 24 h in HCT-116 cells (FIG. 6A), with a similar effect recorded in A549 cells. […] OSBP1 levels were determined using both an antibody recognizing the far N-terminus of OSBP1 (FIG. 6) and also an antibody recognizing the C-terminus of OSBP1.
One possible explanation for the reduction in OSBP1 levels upon treatment with 1 and 2 was proteasome-dependent degradation. To determine whether degradation of OSBP1 was proteasome dependent, proteasome inhibitors MG-132 or lactacystin were co-administered with 1 and 2. […] Similar results were obtained in A549 cells.

[4] = target: T2, OSBP1-myc-his (Homo sapiens, UniProt P22059); assay: [3H]-25-hydroxycholesterol charcoal-dextran binding assay with OSBP1-myc-his
T2 construct: made in house; host or cells: HEK-293T (transient transfection; S100 lysate, not purified)
T2 sequence (P22059 1-807): T1 sequence (P22059 1-807)
Source text: [^3H]-25-Hydroxycholesterol charcoal-dextran binding assay.
as §3

[5] = tested on: A549 cells; assay: cells; type: cell-based, human; conditions: for GI50: Homo sapiens, A549, 48 h, read-out: GI50 (nM) 48 h
Source text: Methods are essentially as described above in the General Methods section in connection with assays using HCT-116 cells.

[6] = target: T3, ORP4L-myc-his (Homo sapiens, UniProt Q969R2); assay: [3H]-25-hydroxycholesterol charcoal-dextran binding assay with ORP4L-myc-his
T3 sequence (Q969R2 1-916): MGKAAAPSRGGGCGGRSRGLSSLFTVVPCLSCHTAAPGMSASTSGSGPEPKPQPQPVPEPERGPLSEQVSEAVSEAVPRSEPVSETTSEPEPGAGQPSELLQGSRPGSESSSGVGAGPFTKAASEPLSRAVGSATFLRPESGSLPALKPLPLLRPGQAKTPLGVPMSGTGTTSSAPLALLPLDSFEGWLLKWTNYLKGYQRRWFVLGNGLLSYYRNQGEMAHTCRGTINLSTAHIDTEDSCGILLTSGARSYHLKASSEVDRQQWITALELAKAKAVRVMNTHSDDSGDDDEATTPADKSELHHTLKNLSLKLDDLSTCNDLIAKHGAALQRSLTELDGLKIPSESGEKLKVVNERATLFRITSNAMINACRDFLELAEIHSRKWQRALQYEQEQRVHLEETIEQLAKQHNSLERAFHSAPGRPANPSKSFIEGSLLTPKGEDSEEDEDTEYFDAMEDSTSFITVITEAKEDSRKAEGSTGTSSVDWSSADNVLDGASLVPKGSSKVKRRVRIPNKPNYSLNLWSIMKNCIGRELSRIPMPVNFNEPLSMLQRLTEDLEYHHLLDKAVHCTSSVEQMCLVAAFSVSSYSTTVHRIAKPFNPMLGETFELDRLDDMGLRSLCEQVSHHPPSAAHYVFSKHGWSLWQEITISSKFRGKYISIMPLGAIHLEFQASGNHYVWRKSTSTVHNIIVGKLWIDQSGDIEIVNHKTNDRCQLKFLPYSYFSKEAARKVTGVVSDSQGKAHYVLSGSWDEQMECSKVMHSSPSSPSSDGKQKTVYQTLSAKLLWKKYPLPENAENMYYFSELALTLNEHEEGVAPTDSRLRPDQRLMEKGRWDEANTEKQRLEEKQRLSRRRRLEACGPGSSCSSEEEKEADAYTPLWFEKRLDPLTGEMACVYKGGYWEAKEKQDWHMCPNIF
Protocol: [^3H]-25-Hydroxycholesterol charcoal-dextran binding assay. […] These vectors were transfected into HEK-293T cells using Lipofectamine™2000 (Invitrogen), and 48 h after transfection, on-plate lysis of the transfected cells with the M-Per®/HALT™ with EDTA (ThermoScientific) reagent was performed, followed by ultracentrifugation at 100,000 g. The S100 lysate was diluted to 0.2 mg/mL, aliquoted and stored at −80° C. until use. The HEK-293T OSBP1-, ORP4L- or lacZ-myc-his lysate was incubated with [^3H]-25-hydroxycholesterol at 4° C. for 16 h in 96-well plates. After incubation, charcoal/dextran (C/D) was added to the wells for 30 min of shaking at RT, followed by centrifugation for 15 min at 1900 g to pellet the C/D. The C/D-cleared lysate was added to MicroScint™-20 (PerkinElmer) scintillation fluid, and the remaining protein-bound radiolabel was quantified using a TopCount™ scintillation counter. [^3H]-25-hydroxycholesterol binding curves and competition curves were repeated at least three times.
Lysates were thawed on ice, with brief periods of hand warming. Both the ^3H-25-OHC direct binding assays and the ^3H-25-OHC competition binding assays were set up similarly, with a large stock of binding assay lysate being prepared, then 73.5 μL of the binding assay mixture dispensed using a multi-channel pipettor into “V”-shaped 96-well plates. For the ^3H-25-OHC direct binding assay, 1.5 μL of ^3H-25-OHC and ^3H-25-OHC/40×25-OHC added to the wells in dilutions in 100% ethanol. For the ^3H-25-OHC competition binding assays, ^3H-25-OHC was added to the large stock of binding assay lysate to a final concentration of 20 nM. This ^3H-25-OHC-containing binding lysate was then dispensed using a multi-channel pipettor into the 96-well plates. Then, 1.5 μL of a serial dilution of the inhibitors in either 100% ethanol (25-OHC) or DMSO (the ORPphilins) was added to each well.
The binding lysate used in each well of the 96-well plate consisted of 60 μL of 0.2 mg/mL S100 lysate, 7.5 μL 20% PVA, and 5.6 μL 2M KCl. For ^3H-25-OHC binding curve experiments, 0.4 μL of buffer was then added (total volume per well: 73.5 μL). For the ^3H-25-OHC inhibition competition assays, 0.11 μL of 13.2 μM ^3H-25-OHC and 0.29 μL binding buffer was added for each well (total volume per well: 73.5 μL).
Binding assays were incubated, standing, for 16 h at 4° C. Then 30 μL of the rt C/D solution was multichannel pipetted into new “V’ shaped 96-well plates, and 60 μL of the binding lysate mixture was then added. The plates were briefly, lightly vortexed (˜10 sec), 10 and then rocked at 250 rpm for 30 min at rt. The plates were then centrifuged at 1900 g for 15 min at 4° C. in Microplate Carriers (Sorvall cat. #75006449S) in a Sorvall Legend RT centrifuge. Carefully so as to not disturb the C/D pellet, 30 μL of the supernatant was transferred to 170 μL of Microscint-20 in the OptiPlates. The plates were sealed with the TopSealA-Films, and vigorously vortexed (max speed, >1 min). ^3H-25-OHC detection in the wells was then performed using a TopCount Scintillation detector, counting each well for 2 min. Data was graphed and analyzed using GraphPad PrismS, using non-linear regression to determine KD and K1 values.
Binding experiments were performed at 4° C. for 16 h. Unbound sterol was removed using dextran-coated charcoal, and protein-bound sterol left in the supernatant was quantified by scintillation counting. Ki-values were determined as mean±s.d. from at least three independent experiments.

[7] = HCT-116, 48 h, read-out: GI50 (nM) 48 h p21^+/+
[8] = competition with 20 nM [3H]-25-OHC, HEK-293T S100 lysate, 4° C., 16 h

Structure (SMILES)	GI50 [1, 7] [nM]	GI50 [2] [nM]	Ki [4] [nM]	GI50 [5] [nM]	Ki [6] [nM]	other results
C=CCOC(=O)NCCCCCCNC(=O)O[C@H]1CC[C@@]2(C)C(=CC[C@@H]3C2CC[C@@]2(C)[C@H]3C[C@H](OC3OCC(O)C(OC4OCC(O)C(O)C4OC(=O)c4ccc(OC)cc4)C3OC(C)=O)[C@]2(O)[C@H](C)C(=O)CCC(C)C)C1 (some centres unmarked) [Compound 103]	172 ± 2	138 ± 16	–	–	–	–
C=CCOC(=O)NCCCCCCNC(=O)O[C@H]1CC[C@@]2(C)C(=CC[C@@H]3C2CC[C@@]2(C)[C@H]3C[C@H](OC3OCC(O)C(OC4OCC(O)C(O)C4O)C3O)[C@]2(O)[C@H](C)C(=O)CCC(C)C)C1 (some centres unmarked) [Compound 104]	> 2700	525 ± 4	–	–	–	–
CC(C)C[C@@H](C=O)NC(=O)[C@H](CC(C)C)NC(=O)[C@H](CC(C)C)NC(=O)OCc1ccccc1 [MG-132] (Cbz-Leu-Leu-Leu-aldehyde)	–	–	–	–	–	block of OSBP1 degradation by 1 and 2 [3]: completely blocked; effect on OSBP1 levels, compound alone [3]: did not affect
C=CCOC(=O)NCc1ccc(CNC(=O)OC2COC(OC3C(O)COC(O[C@H]4C[C@H]5[C@@H]6CC=C7C[C@@H](O)CC[C@]7(C)C6CC[C@]5(C)[C@@]4(O)[C@H](C)C(=O)CCC(C)C)C3OC(C)=O)C(OC(=O)c3ccc(OC)cc3)C2O)cc1 (some centres unmarked) [Compound 6c]	17 ± 4	2.2 ± 0.5	46 ± 11	2.9 ± 0.9	150 ± 50	–
COc1ccc(C(=O)OC2C(OC3C(O)COC(O[C@H]4C[C@H]5[C@@H]6CC=C7C[C@@H](O[Si](C)(C)C(C)(C)C)CC[C@]7(C)C6CC[C@]5(C)[C@@]4(O)[C@H](C)C(=O)CCC(C)C)C3OC(C)=O)OCC(O)C2O)cc1 (some centres unmarked) [Compound 108, 3-(tert-Butyldimethylsilyl)-OSW-1]	2300 ± 200	720 ± 90	–	1600 ± 500	–	[^3H]-25-OHC K1 (nM) OSBP1-myc-his [4, 8]: None detected; competition with [3H]-25-OHC for binding to OSBP1 ([4]; listed as 9): did not compete; also recorded: does not bind; fold less active than OSW-1 (2) in HCT-116 cells [1]: ca. 1,400 fold; GI50 ([1]; HCT-116, read-out: GI50 in HCT-116 cells): 2300 nM; fold less cytotoxic than 2 in HCT-116 p21−/− cells [2]: 2100 fold; fold less cytotoxic than 2 in A549 cells [5]: 700 fold; [^3H]-25-OHC K1 (nM) ORP4L-myc-his [6, 8]: None detected; competition with [3H]-25-OHC for binding to ORP4L ([6]; listed as 9): did not compete; also recorded: does not bind
CC(=O)N[C@@H](CSC(=O)[C@]1([C@@H](O)C(C)C)NC(=O)[C@H](C)[C@@H]1O)C(=O)O [lactacystin]	–	–	–	–	–	block of OSBP1 degradation by 1 and 2 [3]: completely blocked; effect on OSBP1 levels, compound alone [3]: did not affect
C=CCOC(=O)NCc1ccc(CNC(=O)O[C@H]2CC[C@@]3(C)C(=CC[C@@H]4C3CC[C@@]3(C)[C@H]4C[C@H](OC4OCC(O)C(OC5OCC(O)C(O)C5OC(=O)c5ccc(OC)cc5)C4OC(C)=O)[C@]3(O)[C@H](C)C(=O)CCC(C)C)C2)cc1 (some centres unmarked) [Compound 106]	91 ± 10	5 ± 3	–	–	–	–
CC(C)CCC(=O)[C@@H](C)[C@@]1(O)[C@@H](OC2OCC(O)C(OC3OCC(O)C(O)C3O)C2O)C[C@H]2[C@@H]3CC=C4C[C@@H](O)CC[C@]4(C)C3CC[C@@]21C (some centres unmarked) [Compound 8]	1400 ± 400	220 ± 60	170 ± 7	570 ± 250	760 ± 200	–
COc1ccc(C(=O)OC2C(OC3C(O)COC(O[C@H]4C[C@H]5[C@@H]6CC=C7C[C@@H](OC(=O)NCCCCCCNC(=O)OCC8c9ccccc9-c9ccccc98)CC[C@]7(C)C6CC[C@]5(C)[C@@]4(O)[C@H](C)C(=O)CCC(C)C)C3OC(C)=O)OCC(O)C2O)cc1 (some centres unmarked) [Compound 102]	85	97	–	–	–	–
C=CCOC(=O)NCc1ccc(CNC(=O)OC2C(O)COC(OC3C(O)COC(O[C@H]4C[C@H]5[C@@H]6CC=C7C[C@@H](O)CC[C@]7(C)C6CC[C@]5(C)[C@@]4(O)[C@H](C)C(=O)CCC(C)C)C3OC(C)=O)C2OC(=O)c2ccc(OC)cc2)cc1 (some centres unmarked) [Compound 6a]	0.6 ± 0.13	0.08 ± 0.02	18 ± 5	0.1 ± 0.04	43 ± 9	antiproliferative potency relative to 2 [1]: maintained the antiproliferative potency of 2; p21−/− selectivity of growth inhibition (HCT-116 p21−/− versus wt) ([2]; 48 h): commensurate with that of 2
CC(=O)OC1C(O[C@H]2C[C@H]3[C@@H]4CC=C5C[C@@H](O)CC[C@]5(C)C4CC[C@]3(C)[C@@]2(O)[C@H](C)C(=O)CCC(C)C)OCC(O)C1OC1OCC(O)C(O)C1O (some centres unmarked) [Compound 7]	120 ± 40	17 ± 2	63 ± 12	41 ± 25	120 ± 31	–
C=CCOC(=O)NCc1ccc(CNC(=O)O[C@H]2CC[C@@]3(C)C(=CC[C@@H]4C3CC[C@@]3(C)[C@H]4C[C@H](OC4OCC(O)C(OC5OCC(O)C(O)C5O)C4O)[C@]3(O)[C@H](C)C(=O)CCC(C)C)C2)cc1 (some centres unmarked) [Compound 20]	6500 ± 3600	550 ± 300	–	–	–	–
